For orientation: IC50 means the concentration at which inhibition is half-maximal.

The text below walks through data of paper PMC9884808, “Pharmacokinetics, tissue distribution, and antitumor activity of a novel compound, NY-2, in non-small cell lung cancer” (Frontiers in Pharmacology, 2023).

For one data set, the system named is HCT116. As to the kind of experiment: MTT cell viability assay. Set-up: key to IC50 HCT116: -: poor activity, cannot be unified. Conditions: for IC50 HCT116: HCT116 colorectal cancer cells; for IC50: Homo sapiens, HCT-116, HCT116 colorectal cancer cells. The data set is classed as cell-based, human. How it is done: (§1) The human colorectal cancer cell lines, HCT116 and LoVo, the breast cancer cell line, T47D, the hepatocellular carcinoma cell line, HepG2, the normal human liver cell line, HL7702, human umbilical vein endothelial cells (HUVECs), and the non-small cell lung cancer cell lines, A549, H1993, HCC827, H460, were purchased from the American Type Culture Collection (Manassas, VA, United States). Cell lines were cultured in the recommended RPMI-1640 medium (AE24464298, Hyclone, United States) and DMEM medium (AE29422278, Hyclone, United States) supplemented with 10% fetal bovine serum (FBS; JC63470, FB15015, Clark, United States) with 1% penicillin-streptomycin. Cells were maintained in an incubator at 37°C with 5% CO2 (HF90,Sanyo, Japan) and passaged every 48–72 h, after detaching with 0.25% trypsin (Sigma, United States). The compounds ZLDI-8 and NY-1 to -15 were synthesized in the laboratory of Dr. Huaiwei Ding in Shenyang Pharmaceutical University, and verified by high-performance liquid chromatography (purity >95%) for use in experiments (Supplementary Figure S1). Paclitaxel was purchased from MedChemExpress (HY-B0015, 99.97% purity, United States).
(§2) Cell viability was measured by the MTT assay. HCT116, HL7702, A549, H1993, HCC827, and H460 cells were dispensed into 96-well plates at a density of 1 × 10^5 cells/mL. After 24–48 h incubation, cells were treated with the compounds at different concentrations for the indicated periods. An assay kit (WLA073, Wanlei Co., Liaoning, China), was used according to the manufacturer’s instructions to measure LDH activity, The absorbance at 450 nm was measured with a microplate reader (Elx-800, Bio-Rad, China).
(§3) The preliminary antitumor activity of the series of ZLDI-8 derivatives, NY-1 to -15 was screened by the MTT cell viability assay. […] The antitumor activity of NY-2 on HCT116 cells was concentration- and time-dependent, and slightly better than that of the original compound, ZLDI-8.
For orientation: Tetrazolium assays rely on reduction of a dye to a coloured formazan, in cell work by metabolically active cells.

The subject of another data set is LoVo. Put plainly: MTT cell viability assay. Set-up: key to IC50 LoVo: -: poor activity, cannot be unified. Conditions: LoVo colorectal cancer cells; for IC50: Homo sapiens. The data set is classed as cell-based, human. The method, then:
as §1, §2, §3

The subject of a further data set is T47D. As to the kind of experiment: MTT cell viability assay. The data set is classed as cell-based, human. Set-up: key to IC50 T47D: -: poor activity, cannot be unified. The following applies: T47D breast cancer cells; for IC50: Homo sapiens. The method, then:
as §1, §2, §3

The subject of the next data set is HepG2. As to the kind of experiment: MTT cell viability assay. The following applies: HepG2 hepatocellular carcinoma cells; for IC50: Homo sapiens. The data set is classed as cell-based, human. Set-up: key to IC50 HepG2: -: poor activity, cannot be unified. How it is done: as §1, §2, §3
A further data set concerns A549 cells. The following applies: 28 days, NY-2 6 mg/kg, paclitaxel 1 mg/kg; for Lung metastasis of nude mice, number of mice (%): six mice per group, model 5 mice (83.3%). The method, then: The experimental groups included the normal (no tumor cells, vehicle) group, the model (tumor cells, vehicle) group, NY-2-treated, and paclitaxel-treated groups, with six mice in each group. After 7 days for adaptation, 200 µL of A549 cells (2× 10^6 cells/mice) in serum-free medium were injected into the tail vein except for those in the normal group. Drug or vehicle administration via tail vein was started on the next day. The normal group and model group were given the same amount of sterile water containing 1% DMSO and 1% Tween as vehicle control. […] Injections were done every other day. The general conditions of the nude mice, with regard to activity and food ingestion, were observed every day, and their body weight was measured every other day.
KM mice were treated with ZLDI-8 or NY-2 by tail vein injection (6 mg/kg) for 7 days, then the mice were euthanized and liver and kidney tissues were removed and sectioned. For the experiment with BALB/c nude mice, the tail vein injections of NY-2 (6 mg/kg) were continued for 28 days, and the lungs, tumor, heart, liver, and kidney were removed. […] Sections for staining were dewaxed with xylene and then rehydrated, and hematoxylin-eosin staining was performed, after which the sections were again dehydrated in ethanol and cleared with xylene before being mounted on a slide, cover-slipped and examined microscopically. The remainder of the tumors and tissues was frozen in liquid nitrogen for other studies.

Read-outs that look alike come from different tables or passages of the source. Marks after values point to notes of the source that are not given here.

On to `Cc1ccc(OCCn2c(C)c(C=C3C(=O)NC(=O)NC3=O)c3ccccc32)c(C)c1` [NY-1], for which the “IC50 HCT116” value in the data set with HCT116 is “-”. In addition, the “IC50 LoVo” value in the data set with LoVo is “-”. Moreover, the “IC50 T47D” value with T47D is recorded as “-”. The molecule also displayed an IC50 in the data set with HepG2 of 26.2 µM.
With `Cc1c(C=C2C(=O)NC(=O)NC2=O)c2ccccc2n1CCOc1ccc(F)cc1` [NY-3], the results for the IC50 with HCT116 and in the data set with LoVo were 43.7 µM and 21.4 µM, respectively. Further, the “IC50 T47D” value with T47D is listed as “-”. The “IC50 HepG2” value with HepG2 is on record as “-”.
On to `Cc1c(C=C2C(=O)NC(=S)NC2=O)c2ccccc2n1CCOc1cccc(F)c1` [NY-4], for which the IC50 worked out at 27.5 µM in the data set with HCT116, 41.8 µM with LoVo and 25.4 µM in the data set with T47D. Further, the “IC50 HepG2” value with HepG2 is listed as “-”.
Regarding `Cc1c(C=C2C(=O)NC(=O)NC2=O)c2ccccc2n1CCOc1cccc(F)c1` [NY-5], the IC50 with HCT116 turned out to be 11.4 µM; in the data set with LoVo, 23.5 µM; with T47D it was 34 µM; with HepG2, 37.2 µM.
The corresponding values for `O=C1NC(=O)C(=Cc2cn(CCOc3cccc(F)c3)c3ccccc23)C(=O)N1` [NY-6] are 38.8 µM, 28.7 µM, 53.7 µM and 40.8 µM.
Taken in the same sequence, the figures for `Cc1c(C=C2C(=O)NC(=S)NC2=O)c2ccccc2n1CCOc1cccc(C(F)(F)F)c1` [NY-7] were 12.5 µM, 20.6 µM, 21.8 µM and 77.4 µM.
In the case of `Cc1c(C=C2C(=O)NC(=O)NC2=O)c2ccccc2n1CCOc1cccc(C(F)(F)F)c1` [NY-8], the “IC50 HCT116” value with HCT116 is listed as “-”. Moreover, the IC50 in the data set on LoVo is 38.1 µM; with T47D it was 10.3 µM. Also, the “IC50 HepG2” value in the data set on HepG2 was “-”.
With `O=C1NC(=O)C(=Cc2cn(CCOc3cccc(C(F)(F)F)c3)c3ccccc23)C(=O)N1` [NY-9], the IC50 in the data set with HCT116 amounted to 35.3 µM; in the data set with HepG2, 85.2 µM. Moreover, the “IC50 LoVo” value with LoVo is “-”. Also, in the data set on T47D, the “IC50 T47D” value is recorded as “-”.
With `Cc1c(C=C2C(=O)NC(=S)NC2=O)c2ccccc2n1CCOc1ccc(Cl)cc1Cl` [NY-10], the IC50 with HCT116 worked out at 26 µM; with LoVo, 86.4 µM; in the data set with T47D it was 23.3 µM; in the data set on HepG2, 66.7 µM.
Regarding `Cc1c(C=C2C(=O)NC(=O)NC2=O)c2ccccc2n1CCOc1ccc(Cl)cc1Cl` [NY-11], the “IC50 HCT116” value in the data set on HCT116 is given as “-”. Besides, the IC50 in the data set with LoVo worked out at 23.2 µM; in the data set on T47D, 16.6 µM; in the data set with HepG2, 90.1 µM.
On to `O=C1NC(=O)C(=Cc2cn(CCOc3ccc(Cl)cc3Cl)c3ccccc23)C(=O)N1` [NY-12], for which the results for the IC50 in the data set with HCT116 and with T47D were 20 µM and 40.4 µM, respectively. Moreover, in the data set with LoVo, the “IC50 LoVo” value is listed as “-”. In addition, the “IC50 HepG2” value in the data set on HepG2 is listed as “-”.
With `Cc1c(C=C2C(=O)NC(=S)NC2=O)c2ccccc2n1CCOc1cccc2ccccc12` [NY-13], the half-inhibitory concentration (IC50) in the data set with HCT116 is 12.8 µM; in the data set on LoVo, 43.2 µM; with T47D, 5.15 µM; in the data set with HepG2, 33.1 µM.
As to `Cc1c(C=C2C(=O)NC(=O)NC2=O)c2ccccc2n1CCOc1cccc2ccccc12` [NY-14], in the data set with HCT116, the “IC50 HCT116” value is recorded as “-”. For the same molecule, the “IC50 LoVo” value in the data set with LoVo was “-”. The 50% inhibitory concentration (IC50) in the data set on T47D turned out to be 74.3 µM. For the same molecule, in the data set on HepG2, the “IC50 HepG2” value is given as “-”.
`O=C1NC(=O)C(=Cc2cn(CCOc3cccc4ccccc34)c3ccccc23)C(=O)N1` [NY-15]: the IC50 in the data set on HCT116 stood at 11.3 µM; in the data set on LoVo, 124 µM; with T47D it was 21.4 µM; in the data set with HepG2 it was 13.5 µM.
As for `CC(=O)O[C@H]1C(=O)[C@@]2(C)[C@H]([C@H](OC(=O)c3ccccc3)[C@]3(O)C[C@H](OC(=O)[C@H](O)[C@@H](NC(=O)c4ccccc4)c4ccccc4)C(C)=C1C3(C)C)[C@]1(OC(C)=O)CO[C@@H]1C[C@@H]2O` [Paclitaxel, reference compound], the “Body weight before dissection” value in the data set on A549 cells (nude mice with A549 lung metastasis, tail vein every other day, n=6, mean ± SEM) worked out at 22.72 ± 0.32 g. In the data set with A549 cells (nude mice, n=6, mean ± SEM), the “Kidney as a proportion of body weight” value is 1.74 ± 0.03 10^-2, the “Liver as a proportion of body weight” value is 5.45 ± 0.20# 10^-2, the “Lung as a proportion of body weight” value is on record as 0.64 ± 0.02 10^-2 and the “Quality of the heart” value is 0.14 ± 0.01 g. In the data set on A549 cells (nude mice, n=6, mean ± SEM), the “Quality of the kidney” value was determined as 0.41 ± 0.01 g, the “Quality of the liver” value is given as 1.29 ± 0.06 g and the “Quality of the lung” value was determined as 0.15 ± 0.01 g. Moreover, the “infiltration of A549 cells in the lung tissue (H&E)” value with A549 cells (nude mice) is on record as “no infiltration of A549 cells in the lung tissue”. In addition, in the data set with A549 cells, the “Lung metastasis of nude mice, number of mice (%)” value is given as 0 (0). In addition, in the data set with A549 cells (listed as paclitaxel), the “Lung metastasis of nude mice, number of mice (%)” value is “No metastatic tumors were found”.
